Laboratory results taken from patent US20070167488A1, “Novel therapeutic use” (Leo Pharma A/S, priority 2003, published 2007).

Columns and labels:
[1] = test system: IL-2; test: IL-2 production by spleen cells of immunized, dosed mice after in vitro restimulation with PLP139-153; type: cell-based, mouse; conditions: for Level of antigen-specific IL-2 production of spleen cells: example 6, vs vehicle treated group
[2] = test system: EAE induced in SJL/J mice with a peptide from myelin proteolipid protein (PLP139-153); test: EAE model in SJL/J mice immunized with PLP139-153 peptide; type: in vivo, mouse; conditions: for Inhibition of EAE compared with the suspension vehicle group (in words): SJL/J mice, PLP139-153, doses as in tables 1 and 3
[3] = test system: IL-6; test: IL-6 production by spleen cells of immunized, dosed mice after in vitro restimulation with PLP139-153; type: cell-based, mouse; conditions: example 6, 50 mg/kg i.p. daily for 10 days, vs vehicle treated group
[4] = test system: IFN-γ; test: IFN-γ production by spleen cells of immunized, dosed mice after in vitro restimulation with PLP139-153; type: cell-based, mouse; conditions: example 6, 50 mg/kg i.p. daily for 10 days, vs vehicle treated group
[5] = test system: IL-17; test: IL-17 production by spleen cells of immunized, dosed mice after in vitro restimulation with PLP139-153; type: cell-based, mouse; conditions: example 6, 50 mg/kg i.p. daily for 10 days, vs vehicle treated group
[6] = test system: EAE in C57BL/6 mice immunized with a peptide from myelin oligodendrocyte glycoprotein (MOG35-55); test: Second EAE model: C57BL/6JBom mice immunized with MOG35-55 peptide; type: in vivo, mouse
[7] = test system: gene expression in inflammatory cells in the spleen; test: Oligonucleotide array of spleen cDNA from treated and control EAE mice; type: in vivo, mouse
Experimental: Control mice were given suspension vehicle as described in example 1. On day 7 after treatment, the mice (both treated and control) were sacrificed and their spleens were excised, submerged into the RNA storage solution RNA-later (Sigma-Aldrich, St. Louis, USA) and stored at −80° C. Total RNA was extracted from the mouse spleens using the TRIZOL extraction procedure according to the manufacturer's protocol followed by DNAse treatment (Invitrogen, Carlsbad, Calif., USA). The RNA quality was visualized by agarose gel electrophoresis. Ten μg total RNA was converted into purified ^33P-labelled cDNA probe according to the Atlas Pure Total RNA labelling protocol (BD Biosciences, Palo Alto, Calif., USA).
Labelled probes (10×10^6 CPM) were denatured at 95° C. for 2 minutes and cooled at 4° C. for 2 minutes prior to hybridization to oligonucleotide arrays comprising about 5.000 mouse genes in duplicate dots (Atlas Plastic Mouse 5K MicroArray, BD Biosciences, Palo Alto, Calif., USA). Arrays were hybridized for 16 h at 60° C. with rotation according to the manufacturer's protocol. After hybridization and appropriate washing steps, the arrays were imaged using phospho imager technology together with a STORM 860 scanner (Molecular Dynamics, Sunnyvale, Calif., USA). Subsequently, the images were analysed using the Atlas Image 2.7 software (BD Biosciences, Palo Alto, Calif., USA).

[8] = Table 3, experiment with vehicle AUC 28.6, day 0-21, 50 mg/kg i.p. daily
[9] = listed as 3-(1H-indol-3-ylmethylene)-1,3-dihydro-indol-2-one
[10] = Table 4, 50 mg/kg daily, treatment as in example 4
[11] = MOG35-55, day 0-21, 50 mg/kg i.p. daily
[12] = Exp. 1, terminated day 21, 50 mg/kg i.p. daily
[13] = Exp. 2, terminated day 21, 4 mg/kg i.p. daily
[14] = Exp. 2, terminated day 21, 10 mg/kg i.p. daily
[15] = Exp. 2, terminated day 21, 25 mg/kg i.p. daily
[16] = Exp. 2, terminated day 21, 50 mg/kg i.p. daily
[17] = Exp. 3, terminated day 28, 25 mg/kg i.p. daily
[18] = Exp. 3, terminated day 28, 50 mg/kg i.p. daily
[19] = Exp. 4, terminated day 35, 50 mg/kg i.p. daily

`O=C1Nc2ccccc2C1=Cc1c[nH]c2ccccc12` (racemic) [Compound 57, 3-(1H-indol-3-ylmethylene)-1,3-dihydro-indol-2-one] was tested, and the “Level of antigen-specific IL-2 production of spleen cells” value ([1]; 50 mg/kg i.p. daily for 10 days, listed as 3-(1H-indol-3-ylmethylene)-1,3-dihydro-indol-2-one) was “inhibit expression”, the “Level of antigen-specific IL-2 production of spleen cells” value ([1]; 50 mg/kg i.p. daily for 10 days, listed as compound 57) was “clearly reduced” and the “Inhibition of EAE compared with the suspension vehicle group (in words)” value [2] was “clear and significant inhibition”. For the same compound, the “AUC (mean) of the disease score” value [2, 8] was 4.70, the “inhibition (%)” value [2, 8] was 84% and the “Inhibition (%) of EAE (area-under-curve of the disease score)” value (shortened to “Inhibition (%) of EAE”) ([2]; Table 7, 50 mg/kg p.o., suspension vehicle) was 32%. For the same compound, the “Level of antigen-specific IL-6 production of spleen cells” value [3, 9] was “inhibit expression”, the “Level of antigen-specific IL-6 production of spleen cells” value ([3]; listed as compound 57) was “clearly reduced” and the “Level of antigen-specific IFN-γ production of spleen cells” value [4, 9] was “inhibit expression”. The “Level of antigen-specific IFN-γ production of spleen cells” value ([4]; listed as compound 57) was “clearly reduced”, the “Level of antigen-specific IL-17 production of spleen cells” value [5, 9] was “inhibit expression” and the “Level of antigen-specific IL-17 production of spleen cells” value ([5]; listed as compound 57) was “clearly reduced”.

`O=C1Nc2ccccc2C1=Cc1cc(Cl)ccc1Cl` (racemic) [Compound 193, 3-(2,5-dichloro-benzylidene)-1,3-dihydro-indol-2-one] was tested, and the “Inhibition (%) of EAE” value [2, 10] was 37%.

`Cc1cc(C)c(C=C2C(=O)Nc3ccccc32)[nH]1` [Compound 226, 3-(3,5-dimethyl-1H-pyrrol-2-ylmethylene)-1,3-dihydro-indol-2-one] was tested, and the “Effect on disease development (in words)” value ([6]; MOG35-55, 50 mg/kg i.p.) was “significant effect on disease development”, the “AUC (mean) of the disease score” value [6, 11] was 2.65 and the “inhibition (%)” value [6, 11] was 83%. The “IL-2 production of restimulated spleen cells after in vivo dosing” value ([1]; 50 mg/kg i.p. daily for 10 days, spleen cells day 10, PLP139-153, 3 days culture) was “markedly inhibited”, the “IL-2 production of cells from suspension vehicle treated mice on in vitro incubation with compound” value ([1]; 10^−7 M in vitro for 3 days) was “did not inhibit” and the “Level of antigen-specific IL-2 production of spleen cells” value ([1]; 50 mg/kg i.p. daily for 10 days, listed as compound 226) was “clearly reduced”. For the same compound, the “Genes on the Atlas MicroArray differentially expressed, treated vs control mice” value ([7]; day 7, daily dosing from day 0) was “Approximately 1.5%”, the “Expression of genes encoding adhesion molecules (lymphocyte antigens 6 locus D, 6 locus E, 84)” value ([7]; day 7, treated vs control mice) was “upregulated” and the “Expression of genes encoding interleukin 1 receptor, interleukin 10 receptor alpha, TNF receptor and TNF receptor-associated factor 1” value ([7]; day 7, treated vs control mice) was “downregulated”. For the same compound, the “AUC (mean) of the disease score” value [2, 12] was 1.8, the “inhibition (%)” value [2, 12] was 90% and the “AUC (mean) of the disease score” value [2, 13] was 21.2. The “inhibition (%)” value [2, 13] was 17%, the “AUC (mean) of the disease score” value [2, 14] was 19.6 and the “inhibition (%)” value [2, 14] was 23%. The “AUC (mean) of the disease score” value [2, 15] was 4.6, the “inhibition (%)” value [2, 15] was 82% and the “AUC (mean) of the disease score” value [2, 16] was 0.6. For the same compound, the “inhibition (%)” value [2, 16] was 98%, the “AUC (mean) of the disease score” value [2, 17] was 11.9 and the “inhibition (%)” value [2, 17] was 70%. For the same compound, the “AUC (mean) of the disease score” value [2, 18] was 6.6, the “inhibition (%)” value [2, 18] was 83% and the “AUC (mean) of the disease score” value [2, 19] was 21.9. For the same compound, the “inhibition (%)” value [2, 19] was 65%, the “Inhibition of EAE compared with the suspension vehicle group (in words)” value [2] was “significantly inhibit” and the “Effect on development of EAE in prolonged experiments (in words)” value ([2]; experiments 3 and 4, prolonged with one and two weeks) was “delays development of EAE rather than prevents the disease”. The “Level of antigen-specific IL-6 production of spleen cells” value ([3]; listed as compound 226) was “clearly reduced”, the “Level of antigen-specific IFN-γ production of spleen cells” value ([4]; listed as compound 226) was “clearly reduced” and the “Level of antigen-specific IL-17 production of spleen cells” value ([5]; listed as compound 226) was “clearly reduced”.

For `CCCn1cc(/C=C2\C(=O)Nc3ccccc32)c2ccccc21` [Compound 31, 3-(1-propyl-1H-indol-3-ylmethylene)-1,3-dihydro-indol-2-one], the “Inhibition (%) of EAE” value [2, 10] was 60%.

In the case of `CCN(CC)CCNC(=O)c1c(C)[nH]c(/C=C2\C(=O)Nc3ccccc32)c1C` [Compound 227, 2,4-dimethyl-5-(2-oxo-1,2-dihydro-indol-3-ylidenemethyl)-1H-pyrrole-3-carboxylic acid (2-diethylamino-ethyl)-amide], the “Inhibition (%) of EAE” value [2, 10] is reported as 49%.

For `Cc1[nH]c(/C=C2\C(=O)Nc3ccccc32)c(C)c1Br` [Compound 22, 3-(4-bromo-3,5-dimethyl-1H-pyrrol-2-ylmethylene)-1,3-dihydro-indol-2-one], the “Inhibition (%) of EAE” value [2, 10] was 78%.

In the case of `Cc1cc(C(=O)NCCO)[nH]c1/C=C1\C(=O)Nc2ccccc21` [Compound 02, 4-methyl-5-(2-oxo-1,2-dihydro-indol-3-ylidenemethyl)-1H-pyrrole-2-carboxylic acid (2-hydroxy-ethyl)-amide], the “Inhibition (%) of EAE” value [2, 10] is reported as 41%.

For `Cc1ccc(C)c(/C=C2/C(=O)Nc3ccccc32)c1` [Compound 104, 3-(2,5-dimethyl-benzylidene)-1,3-dihydro-indol-2-one], the “Inhibition (%) of EAE” value [2, 10] was 71%.
